Measured values reported in paper PMC12368815, “Targeting Cancer with New Morpholine-Benzimidazole-Oxadiazole Derivatives: Synthesis, Biological Evaluation, and Computational Insights” (ACS Omega, 2025).

How the values were obtained:
[1] = test system: NIH3T3 (healthy normal fibroblast cells); experiment: MTT cytotoxicity assay on NIH3T3 normal fibroblasts; assay type: cell-based; details: Mus musculus, mean of four independent assays
Protocol: (§1) Compounds 5a–5j were evaluated for their anticancer activity via the MTT assay against the HT-29 cell line. […] Both the synthesized compounds and standards were tested across concentrations from 1000 to 0.49 μg/mL.
(§2) The cytotoxic effects of the compounds on colon cancer (HT29, ATCC HTB-38) and normal healthy fibroblast (NIH3T3, ATCC CRL-1658) cell lines were evaluated using the MTT assay. Based on the cytotoxicity data 5c, 5h and 5j stand out in terms of activity.

[2] = test system: HT-29 cell line (human colon cancer cell line); experiment: MTT cytotoxicity assay on HT-29 colon cancer cells; assay type: cell-based; details: for IC50: Homo sapiens, HT-29, MTT, mean of four independent assays, read-out: IC50 HT29; for Selectivity index (SI): NIH3T3 versus HT29
Protocol: as §1, §2

[3] = target: T1, VEGFR-2 enzyme (Homo sapiens, UniProt P35968); experiment: In vitro VEGFR-2 enzyme inhibition assay kit; assay type: biochemical
T1 construct: purchased
T1 sequence (P35968 20-1356): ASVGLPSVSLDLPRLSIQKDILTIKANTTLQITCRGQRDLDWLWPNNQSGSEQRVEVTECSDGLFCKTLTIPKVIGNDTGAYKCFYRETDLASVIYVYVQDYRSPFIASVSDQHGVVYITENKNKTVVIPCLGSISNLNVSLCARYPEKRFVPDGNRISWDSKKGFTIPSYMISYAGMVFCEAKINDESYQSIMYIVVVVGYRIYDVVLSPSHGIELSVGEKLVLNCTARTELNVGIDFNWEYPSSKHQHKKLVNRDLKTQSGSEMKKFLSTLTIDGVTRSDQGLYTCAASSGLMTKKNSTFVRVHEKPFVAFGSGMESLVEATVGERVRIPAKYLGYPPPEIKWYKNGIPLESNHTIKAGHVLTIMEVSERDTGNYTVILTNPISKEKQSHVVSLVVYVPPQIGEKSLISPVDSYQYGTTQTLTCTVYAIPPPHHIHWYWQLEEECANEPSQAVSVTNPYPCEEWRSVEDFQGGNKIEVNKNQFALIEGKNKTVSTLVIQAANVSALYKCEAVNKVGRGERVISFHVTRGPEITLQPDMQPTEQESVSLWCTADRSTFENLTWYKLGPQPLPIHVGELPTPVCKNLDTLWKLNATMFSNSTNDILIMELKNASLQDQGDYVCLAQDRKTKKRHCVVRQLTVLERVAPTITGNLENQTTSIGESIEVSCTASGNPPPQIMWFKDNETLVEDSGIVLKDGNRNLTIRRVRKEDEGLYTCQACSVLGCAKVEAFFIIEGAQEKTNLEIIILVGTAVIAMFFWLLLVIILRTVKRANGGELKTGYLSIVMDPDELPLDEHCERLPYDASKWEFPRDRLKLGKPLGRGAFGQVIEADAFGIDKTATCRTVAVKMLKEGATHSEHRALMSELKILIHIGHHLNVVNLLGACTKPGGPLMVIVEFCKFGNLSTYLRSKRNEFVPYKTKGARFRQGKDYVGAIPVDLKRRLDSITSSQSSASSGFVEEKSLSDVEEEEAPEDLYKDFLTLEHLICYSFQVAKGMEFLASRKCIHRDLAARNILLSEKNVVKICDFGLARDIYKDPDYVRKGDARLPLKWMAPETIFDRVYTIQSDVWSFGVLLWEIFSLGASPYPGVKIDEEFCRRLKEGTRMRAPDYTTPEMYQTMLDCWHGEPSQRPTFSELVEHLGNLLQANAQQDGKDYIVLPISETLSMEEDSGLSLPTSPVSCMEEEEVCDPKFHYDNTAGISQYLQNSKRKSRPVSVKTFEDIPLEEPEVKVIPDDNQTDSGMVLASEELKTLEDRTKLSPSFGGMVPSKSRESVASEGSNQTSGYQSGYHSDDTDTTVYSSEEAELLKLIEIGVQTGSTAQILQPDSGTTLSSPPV
Protocol: The inhibitory effects of the synthesized compounds on the VEGFR-2 enzyme were assessed using an in vitro assay kit (Table ).

[4] = test system: HT-29 cells; experiment: Annexin V-FITC/PI flow cytometry apoptosis analysis; assay type: cell-based, human; details: HT29, compound at IC50 concentration, 24 h, mean of two repetitions
Text: Programmed cell death-apoptosis is a normal physiological process in healthy organisms that eliminates cells no longer needed. During apoptosis, phosphatidylserine (PS) in the cell membrane is translocated to the outer layer. The Annexin V protein included in the kit binds to this externalized PS, enabling its detection with FITC, a fluorescent marker. Annexin V can also bind to necrotic cells. In such cases, the cells are identified using “Ethidium Homodimer III (EthD-III) (or propidium iodide, PI)”. Flow cytometric assay kits use double-staining protocols to assess apoptosis by detecting differences in cell morphology through the binding efficiency of the Annexin–V complex to PS on the cell surface. , Apoptotic, Necrotic, and Healthy Cells Detection Kit [Available from (Apoptic necrotic kit)] used during flow cytometer analysis.
Briefly, HT-29 cells were plated in six-well plates following the manufacturer’s guidelines and exposed to the compounds at their IC50 concentrations for 24 h. Following treatment, cell suspensions were centrifuged at 1200 rpm for 5 min, and the resulting pellets were rinsed twice with 1 mL of cold phosphate-buffered saline. The assay kits were used according to the manufacturer’s instructions by transferring cells to the appropriate buffer solutions. For each sample, at least 10 000 cells were evaluated. Cell population fractions in various quadrants and gates were determined using quadrant and gate statistical analysis, with settings optimized based on comparison to the untreated control group.
To further investigate the mechanism underlying its anticancer effect, the ability of compound 5h to induce apoptosis was assessed using the Annexin V-FITC/PI dual staining method. The results are presented in Figure , where the data are shown in four quadrants corresponding to different cell populations: live (living) cells correspond to Q1-LL, early apoptotic cells to Q1-LR, late apoptotic cells to Q1-UR, and necrotic cells to Q1-UL.

SMILES | IC50 [1] [µM] | IC50 [2] [µM] | Selectivity index (SI) [2] | IC50 [3] [nM] | fold higher cytotoxic activity than compound 5e ([2]; HT-29, compared to 5e) | early apoptosis [4] [%] | late apoptosis [4] [%] | necrosis [4] [%]
COc1ccc(C(=O)CSc2nnc(-c3ccc4nc(-c5ccc(N6CCOCC6)cc5)[nH]c4c3)o2)cc1 [5c, 1-(4-Methoxyphenyl)-2-(5-(2-(4-morpholinophenyl)-1H-benzo[d]imidazol-6-yl-1,3,4-oxadiazol-2-yl) Thio) Ethan-1-One] | 10.4 ± 0.205 | 17.8 ± 1.77 | 0.59 | 918 ± 27 |  |  |  | 
Cc1ccc(C(=O)CSc2nnc(-c3ccc4nc(-c5ccc(N6CCOCC6)cc5)[nH]c4c3)o2)c(C)c1 [5i, 1-(2,4-Dimethylphenyl)-2-((5-(2-(4-morpholinophenyl)-1H-benzo[d]imidazol-6-yl)-1,3,4-oxadiazol-2-yl) Thio) Ethan-1-One] | 148 ± 3.99 | 72.1 ± 4.61 | 2.05 |  |  |  |  | 
O=C(CSc1nnc(-c2ccc3nc(-c4ccc(N5CCOCC5)cc4)[nH]c3c2)o1)c1ccccc1 [5a, 2-(5-(2-(4-Morpholinophenyl)-1H-benzo[d]imidazol-6-yl)-1,3,4-oxadiazol-2-ylthio)-1-phenylethan-1-One] | 193 ± 7.56 | 135 ± 3.37 | 1.42 |  |  |  |  | 
O=C(CSc1nnc(-c2ccc3nc(-c4ccc(N5CCOCC5)cc4)[nH]c3c2)o1)c1ccc([N+](=O)[O-])cc1 [5g, 2-(5-(2-(4-Morpholinophenyl)-1H-benzo[d]imidazol-6-yl-1,3,4-oxadiazol-2-yl)thio)-1-(4-nitrophenyl) Ethan-1-One] | > 1000 | 260 ± 8.68 |  |  |  |  |  | 
O=C(CSc1nnc(-c2ccc3nc(-c4ccc(N5CCOCC5)cc4)[nH]c3c2)o1)c1ccc(F)cc1 [5d, 1-(4-Fluorophenyl)-2-((5-(2-(4-morpholinophenyl)-1H-benzo[d]imidazol-6-yl)-1,3,4-oxadiazol-2-yl) Thio) Ethan-1-One] | 163 ± 3.75 | 175 ± 5.92 | 0.93 |  |  |  |  | 
N#Cc1ccc(C(=O)CSc2nnc(-c3ccc4nc(-c5ccc(N6CCOCC6)cc5)[nH]c4c3)o2)cc1 [5f, 4-(2-(5-(2-(4-Morpholinophenyl)-1H-benzo[d]imidazol-6-yl-1,3,4-oxadiazol-2-yl) Thio) Acetyl) Benzonitrile] | 14.7 ± 0.818 | 30.2 ± 1.16 | 0.49 |  |  |  |  | 
Cc1ccc(C(=O)CSc2nnc(-c3ccc4nc(-c5ccc(N6CCOCC6)cc5)[nH]c4c3)o2)cc1 [5b, 2-(5-(2-(4-Morpholinophenyl)-1H-benzo[d]imidazol-6-yl)-1,3,4-oxadiazol-2-ylthio)-1-(p-tolyl) Ethan-1-One] | 10.5 ± 2.17 | 22.7 ± 2.39 | 0.46 |  |  |  |  | 
O=C(CSc1nnc(-c2ccc3nc(-c4ccc(N5CCOCC5)cc4)[nH]c3c2)o1)c1ccc(Br)cc1 [5j, 1-(4-Bromophenyl)-2-((5-(2-(4-morpholinophenyl)-1H-benzo[d]imidazol-6-yl)-1,3,4-oxadiazol-2-yl) Thio) Ethan-1-One] | 4.55 ± 0.763 | 9.66 ± 0.149 | 0.47 | 98 ± 11 |  |  |  | 
O=C(CSc1nnc(-c2ccc3nc(-c4ccc(N5CCOCC5)cc4)[nH]c3c2)o1)c1ccc(Cl)c(Cl)c1 [5h, 1-(3,4-Dichlorophenyl)-2-((5-(2-(4-morpholinophenyl)-1H-benzo[d]imidazol-6-yl)-1,3,4-oxadiazol-2-yl) Thio) Ethan-1-One] | 15.2 ± 0.987 | 3.1 ± 0.979 | 4.88 | 49 ± 2 | approximately 33 fold | 2.05 ± 0.25 | 16.95 ± 2.85 | 12.2 ± 2.1
O=C(CSc1nnc(-c2ccc3nc(-c4ccc(N5CCOCC5)cc4)[nH]c3c2)o1)c1ccc(Cl)cc1 [5e, 1-(4-Chlorophenyl)-2-((5-(2-(4-morpholinophenyl)-1H-benzo[d]imidazol-6-yl)-1,3,4-oxadiazol-2-yl) Thio) Ethan-1-One] | 531 ± 8.1 | 104 ± 4.53 | 5.12 |  |  |  |  | 
CNC(=O)c1cc(Oc2ccc(NC(=O)Nc3ccc(Cl)c(C(F)(F)F)c3)cc2)ccn1 [Sorafenib, reference compound] | 30.13 ± 0.147 | 2.92 ± 0.214 |  |  |  |  |  | 
